How the values were obtained:
[1] = tested on: Plasmodium falciparum Dd2 asexual blood stage parasites; assay: microbe, parasite or virus in culture; design: species or system Plasmodium falciparum Dd2 in human erythrocytes; single determination (one 11-point concentration-response curve); settings: Plasmodium falciparum, DD2, Erythrocyte, 72 h; read-out: AC50
in vitro = settings: human
[2] = HepG2-A16-CD81EGFP cells, uninfected

SMILES	AC50 [1]	viability at 48 h, 1 µM (in vitro; [2])	viability at 48 h, 3 µM (in vitro; [2])	also measured
CC(C)Oc1ccc2c(c1)OC(c1ccccc1)(C(F)(F)F)NC2=O (centres unmarked) [MLS000392812-01]	2.66 µM	105%	98%	–
O=S(=O)(c1ccc2ccccc2c1)N1CCN(C(S)=Nc2ccc(F)c(Cl)c2)CC1 [MLS000394708-01]	1.06 µM	111%	98%	–
COc1ccc(CCNC(=O)c2cc(C(=O)c3cc(Cl)ccc3O)cn(CCc3ccc(OC)cc3)c2=O)cc1 [MLS000402334-01]	3.76 µM	–	–	viability at 66 h (in vitro; [2]): 105%
COc1cc2c3nnc(-c4ccc(F)cc4)c-3cn(Cc3ccccc3F)c2cc1OC [MLS000419426-01]	3.76 µM	113%	100%	–
COc1ccc(C2C(C(=O)N3CCCCC3)CC(=O)N2c2ccc(OC)cc2)cc1 (centres unmarked) [MLS000519691-01]	7.5 µM	85%	91%	–
Cc1nccn1CC(O)Cn1c2ccccc2c2ccccc21 (centres unmarked) [MLS000527796-01]	8.41 µM	103%	–	viability at 48 h (in vitro; [2]): 103%
OC(CN1CCN(c2ccccn2)CC1)Cn1c2ccc(Cl)cc2c2cc(Cl)ccc21 (centres unmarked) [MLS000529159-01]	2.99 µM	–	–	viability at 66 h (in vitro; [2]): 102%
Oc1ccc(Cl)cc1-c1cc(C(F)(F)C(F)F)nc(-c2ccccc2)n1 [MLS000530553-01]	0.841 µM	93%	87%	–
CCOC(=O)c1c(-c2ccccc2)oc2ccc(O)c(CN3CCCC3)c12 [MLS000530619-01]	0.596 µM	98.8%	–	viability at 48 h (in vitro; [2]): 98.8%
CCc1cc2c(=O)c(-c3cnn(-c4ccccc4)c3)c(C)oc2c(CN2CCCCC2)c1O [MLS000530719-01]	1.33 µM	105%	105%	–
O=c1c(=Cc2ccco2)sc2n1CN(c1cccc(Br)c1)CN=2 [MLS000535198-01]	9.44 µM	103%	103%	–
CCOC(=O)c1c(C)[nH]c(C(=O)CSc2nnc(C3CC3)n2N)c1C [MLS000536141-01]	1.5 µM	92%	89%	–
CCc1cc2c(Sc3nc4ccccc4s3)ncnc2s1 [MLS000544746-01]	1.5 µM	104%	101%	–
CN1C2CCC1/C(=C\c1ccccc1)C(=O)/C2=C\c1ccccc1 [MLS000551165-01]	2.11 µM	–	–	viability at 66 h (in vitro): 95.8%
Oc1ccc(Br)cc1-c1cc(-c2ccc(Cl)cc2)[nH]n1 [MLS000551526-01]	2.66 µM	88%	87%	–
Cc1c(O)c(CN2CCCCC2)cc2c1oc(=O)c1ccccc12 [MLS000551544-01]	0.75 µM	–	–	viability at 66 h (in vitro; [2]): 95.3%
O=C(CCl)N(c1ccccc1)c1c[nH]c2ccccc12 [MLS000554103-01]	2.11 µM	100%	100%	–
CCC(O)(CC)C(=O)NN(C(=O)Nc1csc2c1CCCC2)c1ccccc1 [MLS000554206-01]	2.99 µM	98%	95%	–
NNC(=O)CN1C(c2cccc(Cl)c2)=Nc2ccc(Br)cc2C1c1ccccc1 (centres unmarked) [MLS000558682-01]	2.66 µM	90%	89%	–

SMILES	AC50 [1]	viability at 48 h, 1 µM (in vitro; [2])	viability at 48 h, 3 µM (in vitro; [2])	also measured
CCN(CC)CCN1C(=O)c2ccccc2NC1c1ccc(C)cc1 (centres unmarked) [MLS000558946-01]	2.99 µM	98%	104%	–
O=C1c2ccccc2C2=Nc3ccccc3SC(c3ccccc3F)C12 (centres unmarked) [MLS000562246-01]	4.73 µM	99%	95%	–
COc1ccc(NC2=C(c3ccc(OC)cc3)C(=O)c3ccccc32)cc1 [MLS000562793-01]	5.96 µM	91%	90%	–
COc1cc2c(cc1O)CC[n+]1cc3c(OC)c(OC)ccc3cc1-2 [MLS000563433-01]	7.5 µM	–	–	viability at 66 h (in vitro; [2]): 97.8%
COc1ccc(C2=C(Nc3ccc(C)cc3)c3ccccc3C2=O)cc1 [MLS000563980-01]	4.73 µM	96%	90%	–
N#Cc1cc(C(=O)c2cc(Br)ccc2O)cn(C2CCCCC2)c1=O [MLS000565115-01]	0.668 µM	90%	84%	–
Cc1cc(NC(=O)CN2CCN(c3ccc(O)cc3)CC2)no1 [MLS000565196-01]	4.73 µM	104%	107%	–
CCN(CC)C1=NC(=[N+](CC)CC)c2ccccc21.[O-][Cl+3]([O-])([O-])O [MLS000565348-01]	5.31 µM	–	–	viability (in vitro): 81.5%
Oc1cc2c(cc1CN1CCN(c3cccc(C(F)(F)F)c3)CC1)CCC2 [MLS000570420-01]	0.944 µM	102%	101%	–
Cc1ccc(Cl)cc1N1CCN(Cc2cc3c(cc2O)CCC3)CC1 [MLS000572148-01]	0.188 µM	103%	99%	–
CCOC(=O)C1=C(c2ccccc2)N=c2sc(=Cc3cc(OC)c(OC)c(OC)c3)c(=O)n2C1c1cccs1 (centres unmarked) [MLS000572607-01]	5.96 µM	82%	81%	–
CCCCOc1ccc(C(=O)N/C(=C\c2cccc([N+](=O)[O-])c2)C(=O)OC(C)C)cc1 [MLS000574332-01]	2.11 µM	101%	100%	–
COc1cc(NC(=O)c2cc3c(Cl)nc4ccccc4c3s2)cc(OC)c1OC [MLS000582472-01]	4.73 µM	90%	84%	–
CC(C)Oc1ccc(CCc2nnc(S)n2Cc2ccccc2)cc1 [MLS000582839-01]	5.31 µM	101%	103%	–
CC(NCc1ccc(Cl)cc1Cl)C(O)c1ccccc1 (centres unmarked) [MLS000582862-01]	4.73 µM	–	–	viability at 48 h, 1 µM (in vitro): 120%; viability at 48 h, 3 µM (in vitro): 104%
Cc1cc(C)cc(/N=C/c2[nH]c3ccc(Br)c(Cl)c3c2O)c1 [MLS000586008-01]	11.9 µM	104%	99%	–
Cc1cc(Nc2ccccc2)nc2cc(O)ccc12 [MLS000586979-01]	0.422 µM	100%	100%	–
Cc1ccccc1Nc1cc(C)c2c(O)cccc2n1 [MLS000586981-01]	5.31 µM	105%	100%	–
CCOc1ccc(NC2=C(OC)C(=O)c3ccccc3C2=O)cc1 [MLS000588108-01]	0.376 µM	101%	98%	–

SMILES	AC50 [1]	viability at 48 h, 1 µM (in vitro; [2])	viability at 48 h, 3 µM (in vitro; [2])	also measured
Cc1cc(Nc2cccc(F)c2)nc(NCc2ccccc2)n1 [MLS000589387-01]	8.41 µM	98%	87%	–
CC1CCCCN1Cc1c(O)ccc2c(=O)c(-c3nc4ccccc4s3)c(N)oc12 (centres unmarked) [MLS000591245-01]	1.06 µM	98%	95%	–
CCOC(=O)c1nc2cc3n(c(CC(C)C)c-2c1C)CC(C)=C3C [MLS000594428-01]	7.5 µM	108%	–	viability at 48 h (in vitro; [2]): 108%
CCOCc1cnc(C)nc1NCC(=O)c1c(C)[nH]c2cc(C)ccc12 [MLS000595215-01]	4.22 µM	97%	94%	–
O=C(CN1C2=NCCCN2c2ccccc21)c1ccc(Cl)cc1Cl [MLS000662689-01]	6.68 µM	99%	94%	–
O=C(/C=C/c1ccco1)NC(S)=Nc1ccccc1N1CCCC1 [MLS000663784-01]	2.66 µM	107%	–	viability at 48 h (in vitro; [2]): 107%
OC(CNCc1cccc(Cl)c1)c1ccccc1 (centres unmarked) [MLS000674343-01]	4.73 µM	–	–	viability at 66 h (in vitro; [2]): 106%
CN(C)c1cc[n+](CC(=O)c2ccc(Br)cc2)cc1 [MLS000678949-01]	7.5 µM	–	–	viability at 66 h (in vitro; [2]): 103%
Cc1nc(N2CCC(C)CC2)c2c(C)c(C(=O)Nc3ccc(C(F)(F)F)cc3)sc2n1 [MLS000682669-01]	7.5 µM	108%	99%	–
CC1Cc2nc(SCC(=O)Nc3ccc4c(c3)OCO4)n(-c3ccc(F)cc3)c(=O)c2S1 (centres unmarked) [MLS000685016-01]	2.99 µM	97%	93%	–
COc1cccc(NC(=O)c2ccc(NCCCN3CCC(C)CC3)c([N+](=O)[O-])c2)c1 [MLS000689409-01]	7.5 µM	–	–	viability at 66 h (in vitro; [2]): 108%
CCCN(CCC)CCCNc1ccc(C(=O)Nc2cccc(OC)c2)cc1[N+](=O)[O-] [MLS000689411-01]	5.96 µM	106%	104%	–
Cc1ccc(NC(=O)c2ccc(NCCCN3CCC(C)CC3)c([N+](=O)[O-])c2)cc1F [MLS000689412-01]	6.68 µM	106%	104%	–
CCC(=O)N(C1=C(NC(C)C)C(=O)c2ccccc2C1=O)C(C)C [MLS000696323-01]	2.37 µM	106%	105%	–
CCCn1c2c(c(=N)c3c1CCC3)CCCC2 [MLS000702605-01]	10.6 µM	–	–	viability at 66 h (in vitro; [2]): 93.8%
Cc1nn(-c2nnc(NCc3ccccc3)nn2)c(C)c1Br [MLS000704225-01]	0.841 µM	105%	92%	–
CCCCCSc1cc(O)c(C(CNC)C(C)C)cc1OC (centres unmarked) [MLS000704380-01]	0.168 µM	–	–	viability at 48 h, 1 µM (in vitro): 106%; viability at 48 h, 3 µM (in vitro): 101%
CCOC(=O)c1c(CN(C)C)n(-c2ccc(C)cc2)c2cc(Br)c(O)cc12 [MLS000705141-01]	4.22 µM	101%	101%	–
CC(CCc1ccccc1)NCC(O)c1cccc([N+](=O)[O-])c1 (centres unmarked) [MLS000712395-01]	0.473 µM	104%	106%	–

Source: PMC7822874, “Chemoprotective antimalarials identified through quantitative high-throughput screening of Plasmodium blood and liver stage parasites” (Scientific Reports, 2021)
